The values that follow come from US5843925A, “Methods for inhibiting angiogenesis, proliferation of endothelial or tumor cells and tumor growth” (American Cyanamid Company, priority 1994, dated 1998).

≈ marks a conversion by molar mass, not a printed value. Counter-ions that a name gives are not always drawn.

The test system of data set [1] is A2780S. As to the kind of experiment: Antiproliferative activity in human tumor cell lines (A2780S). It is filed as cell-based. The note with it: A2780S ovarian tumor cell line. The protocol:
(§1) PROTOCOLS 1, 2, and 3 are described in greater detail hereinbelow. In general, according to PROTOCOLS 1 and 2, the target ABAE and/or Human Tumor cells are exposed to the compound of Formula I for 48 hours. PROTOCOL 3 exposes ABAE cells to the compounds for 4 days. A detailed description of the protocol is as follows:
(§2) The antiproliferative activity of the compounds of Formula I of the present invention is evaluated in a panel comprised of human tumor cell lines and an adult bovine aortic endothelial cell line (ABAE). The human tumor cell lines are from
(§3) Cultures are renewed after 20 passages with cells from a fresh stock of batch-frozen early passage cells. Cell lines are routinely checked for mycoplasma contamination (Genprobe). In a laminar flow hood, cells (1-5×10^4) are plated into 96-well microtiter plates in a volume of 0.1 ml/well with a bulk microtiter dispenser (Denley). […] Compounds are added using a Tomtec dispenser which simultaneously dispenses from one 96-well plate, containing the drug dilutions, to the plates containing the cells. After two days of continuous drug exposure, 50% cold trichloroacetic acid (TCA) is added to 10% final concentration to fix the cells, and after 60 minutes at 4° C., the TCA is aspirated and the plates are washed 5 times with deionized water using a microtiter plate washer. […] A 0.4% solution of the dye, sulforhodamine B, in […] is added to the plates, and the plates are washed 5 times with 1% glacial acetic acid using the automatic plate washed. The bound stain is solubilized with 0.1 ml of 10 mM Tris base. The optical densities are read from an automatic spectrophotometric plate reader (Dynatech) directly to a main frame computer (VAX 8600).
(§4) Positive controls, that include standard chemotherapeutic drugs (i.e., adriamycin, cisplatin, etc.), are included in every experiment.
(§5) Background optical density measurements (complete media-cells, and complete media+drug-cells) are automatically subtracted from the appropriate control and test wells. Mean values and standard errors are determined from duplicate wells. A measure is also made of the optical density at time when the drugs are added. The number of cells after treatment (P), as % of control, is calculated for every concentration of drug, as follows: [formula] wherein: T is optical density measurement for treated cells after 48 hours;
(§6) C is optical density measurement for untreated cells after 48 hours;
(§7) Co is optical density measurement for cells at the time of drug addition.
(§8) IC50 of growth inhibition is calculated from the sets of P values using the RS-1 data package (BBN Software).
(§9) Antiproliferative Activity in Human Tumor Cell Lines
(§10) The antiproliferative activity of the compounds of Formula I is evaluated in the panel comprised of human tumor cell lines as listed in PROTOCOL 1. This assay is a slight modification of PROTOCOL 1. The modifications include:
(§11) 1) each concentration for each compound is tested in a single well;
(§12) 2) compounds are tested at 20, 4, 0.8, 0.16 microgram/ml and additionally in some experiments at 100 and 0.32 microgram/ml;
(§13) 3) samples are pipetted into a 96-well plate for each of the cell lines by a Beckman Biomek 1000 SL robot;
(§14) 4) after fixing with TCA each well is washed with 0.35 ml distilled water twice, not five times;
(§15) 5) after staining with sulforhodamine B each well is washed 3 times, not five times;
(§16) 6) the growth inhibition (I) as % of control, is calculated using the RS-1 data package (BBN Software), for every concentration of drug, as follows: [formula] wherein: T is optical density measurement for treated cells after 48 hours;
(§17) 7) IC50 of growth inhibition is determined graphically from dose response curves, as is known in the art.

For data set [2], the system named is A2780/DDP. As to the kind of experiment: Antiproliferative activity in human tumor cell lines (A2780/DDP). It is filed as cell-based. The following applies: A2780/DDP ovarian tumor cell line. The protocol:
as §1, §2, §3, §4, §5, §6, §7, §8, §9, §10, §11, §12, §13, §14, §15, §16, §17

The subject of data set [3] is MIP. Briefly: Antiproliferative activity in human tumor cell lines (MIP). The following applies: MIP colon tumor cell line. In kind it is cell-based. The protocol: as §1, §2
(§18) All cell lines are maintained in log phase in RPMI 1640 media, supplemented with 5% fetal calf serum, penicillin/streptomycin and 2 mM L-glutamine. Cultures are renewed after 20 passages with cells from a fresh stock of batch-frozen early passage cells. Cell lines are routinely checked for mycoplasma contamination (Genprobe). In a laminar flow hood, cells (1-5×10^4) are plated into 96-well microtiter plates in a volume of 0.1 ml/well with a bulk microtiter dispenser (Denley). […] At this concentration, dimethylsulfoxide has no effect on cell growth. Compounds are added using a Tomtec dispenser which simultaneously dispenses from one 96-well plate, containing the drug dilutions, to the plates containing the cells. After two days of continuous drug exposure, 50% cold trichloroacetic acid (TCA) is added to 10% final concentration to fix the cells, and after 60 minutes at 4° C., the TCA is aspirated and the plates are washed 5 times with deionized water using a microtiter plate washer. The number of cells on the plate are quantitated using a protein dye-binding assay (Monks et al., 1991). A 0.4% solution of the dye, sulforhodamine B, in glacial acetic acid is added to the plates, and the plates are washed 5 times with 1% glacial acetic acid using the automatic plate washed. The bound stain is solubilized with 0.1 ml of 10 mM Tris base. The optical densities are read from an automatic spectrophotometric plate reader (Dynatech) directly to a main frame computer (VAX 8600).
as §4, §5, §6, §7, §8, §9, §10, §11, §12, §13, §14, §15
(§19) 6) the growth inhibition (I) as % of control, is calculated using the RS-1 data package (BBN Software), for every concentration of drug, as follows: [formula] wherein: T is optical density measurement for treated cells after 48 hours; […]

The subject of data set [4] is HTB 161. As to the kind of experiment: Antiproliferative activity in human tumor cell lines (HTB 161). In kind it is cell-based. The protocol:
as §1, §2, §3, §4, §5, §6, §7, §8, §9, §10, §11, §12, §13, §14, §15, §16, §17

Data set [5] deals with SW620. As to the kind of experiment: Antiproliferative activity in human tumor cell lines (SW620). The note with it: SW-620, SW620 colon tumor cell line. In kind it is cell-based. How it is done: as §1, §2, §18, §4, §5, §6, §7, §8, §9, §10, §11, §12, §13, §14, §15, §19
Data set [6] deals with Human Tumor cell lines. As to the kind of experiment: Antiproliferative activity in panel of human tumor cell lines (PROTOCOL 1 and PROTOCOL 2). In kind it is cell-based. The following applies: for IC50: Homo sapiens, average over the tumor cell lines of Table 3. How it is done: (§20) The antiproliferative activity of the compounds of Formula I in an Adult Bovine Aortic Endothelial (ABAE) cell line and in Human Tumor cells lines is evaluated in three similar assays that measure growth inhibition. The assays are identified as follows:
as §1, §2, §18, §4, §5, §6, §7, §8, §9, §10, §11, §12, §13, §14
5) after staining with sulforhodamine B each well is washed 3 times, not five times; […]

The subject of data set [7] is CACO2. Briefly: Antiproliferative activity in human tumor cell lines (CACO2). The following applies: Caco-2, CACO2 colon tumor cell line. It is filed as cell-based. How it is done:
as §1, §2, §18, §4, §5, §6, §7, §8, §9, §10, §11, §12, §13, §14, §15, §19

The test system of data set [8] is Adult Bovine Aortic Endothelial (ABAE) cell line. Briefly: Antiproliferative activity in Adult Bovine Aortic Endothelial (ABAE) cell line, PROTOCOL 3. The note with it: 4 day assay (Protocol 3). It is filed as cell-based. How it is done: as §20, §1
Antiproliferative Activity in Adult Bovine Aortic Endothelial (ABAE) Cell Line
ABAE cells are grown in DMEM media (Mediatech Washington, D.C.) supplemented with 10% calf serum (Hyclone). ABAE cells are plated in 24-well dishes at 8,000 cells/well, followed by the addition of increasing concentrations of 7-[substituted amino]-9-[(substituted glycyl)amido]-6-demethyl-6-deoxytetra-cyclines. After four days, the cells are detached and counted. […] The growth inhibition (I) as % of control is calculated as follows: [formula] wherein: Nc is the number of cells in untreated wells;
Nt is the number of cells in treated wells;
No is the number of plated cells.
IC50 of growth inhibition is determined from the sets of I values plotted by Kaleidograph software (Abelbeck Software).
Table 2 presents the results depicting the antiproliferative activity of the compounds of Formula I against an adult bovine aortic endothelial cell line (ABAE), as evaluated by PROTOCOL 1 and PROTOCOL 3. The results are presented in terms of IC50 and are as follows.

The test system of data set [9] is angiogenesis. The following applies: Cancer Research 51, 672-675, Brem et al; cited from earlier work.
The mark [10] stands for this setting: highest concentration, human tumor cell lines.

In the case of `CN(C)c1cc(NC(=O)CN2CCCC2)c(O)c2c1CC1CC3[C@H](N(C)C)C(O)=C(C(N)=O)C(=O)[C@@]3(O)C(O)=C1C2=O` (stereo partly drawn) [Example 3, [7S-(7α,10aα)]-N-[9-(Aminocarbonyl)-4,7-bis(dimethylamino)-5,5a,6,6a,7,10,10a,12-octahydro-1,8-10a,11-tetrahydroxy-10,12-dioxo-2-naphthacenyl]-1-pyrrolidineacetamide dihydrochloride], the IC50 is 2.4 µg/mL in data set [1]; 2.7 µg/mL in data set [2]; 2.45 µg/mL in data set [3]; 2.3 µg/mL in data set [4]; 2.3 µg/mL in [5]; 2.4 µg/mL in [6].

For the compound `CCCN(CCC)c1cc(NC(=O)CN(C)C)c(O)c2c1CC1CC3[C@H](N(C)C)C(O)=C(C(N)=O)C(=O)[C@@]3(O)C(O)=C1C2=O` (stereo partly drawn) [Example 6, [4S-(4α,12aα)]-4-(Dimethylamino)-9-[[(dimethylamino)acetyl]amino]-7-(dipropylamino)-1,4,4a,5,5a,6,11,12a-octahydro-3,10,12,12a-tetrahydroxy-1,11-dioxo-2-naphthacenecarboxamide sulfate (1:1)], the IC50 is 3.5 µg/mL in data set [1]; 3 µg/mL in data set [2]; 10 µg/mL in data set [3]; 8 µg/mL in data set [7]; 3 µg/mL in [4]; 3 µg/mL in [5]. This compound also gave an IC50 in data set [6] of 5.1 µg/mL.

Consider `CCCCN(CC1CC1)c1cc(NC(=O)CN(C)C)c(O)c2c1CC1CC3C(N(C)C)C(O)=C(C(N)=O)C(=O)C3(O)C(O)=C1C2=O` (stereo not drawn) [Example 7, 7-[Butyl(cyclopropylmethyl)amino]-4-(dimethylamino)-9 [[(dimethylamino)acetyl]amino]-1,4,4a,5,5a,6,-11,12a-octahydro-3,10,12,12a-tetrahydroxy-1,11-dioxo-2-naphthacenecarboxamide sulfate (1:2)], for which the IC50 is 3 µg/mL in data set [1]; 3 µg/mL in data set [2]; 8 µg/mL in data set [3]; 10 µg/mL in [7]; 3 µg/mL in data set [4]; 3.5 µg/mL in data set [5]. Further, the midpoint of inhibition in data set [6], the IC50, lay at 5.1 µg/mL.

For `CN(C)c1ccc(O)c2c1C[C@H]1C[C@H]3[C@H](N(C)C)C(O)=C(C(N)=O)C(=O)[C@@]3(O)C(O)=C1C2=O` [Minocycline, reference compound], the “activity upon incubation with cells” value in data set [8] is “losing its activity upon incubation with cells”. Moreover, the IC50 in data set [7] worked out at 9 µg/mL (≈ 19.7 µM). Also, in data set [9], the “inhibition of angiogenesis vs combination therapy of heparin and cortisone” value is “inhibits angiogenesis to an extent comparable to that of the combination therapy of heparin and cortisone”.

Take `CC(C)CN(CC(C)C)c1cc(NC(=O)CN(C)C)c(O)c2c1CC1CC3[C@H](N(C)C)C(O)=C(C(N)=O)C(=O)[C@@]3(O)C(O)=C1C2=O` (stereo partly drawn) [Example 8, [4S-(4α,12aα)]-7-[Bis(2-methylpropyl)amino]-4-(dimethylamino)9-[[(dimethylamino)acetyl]amino]-1,4,4a,5,5a,6,11,12a-octahydro-3,10,12,12a-tetrahydroxy-1,11-dioxo-2-naphthacenecarboxamide sulfate]: the IC50 in [1] came to 2.5 µg/mL; in data set [2], 1.5 µg/mL; in [3], 10 µg/mL; in data set [7], 6 µg/mL; in data set [4], 2.5 µg/mL; in data set [5], 1.5 µg/mL. Half-maximal inhibition in data set [6] (IC50) required 4 µg/mL. The “cell growth at highest concentration” value in [6] (setting [10]) is “the cells continue to grow”. In data set [6] (setting [10]), the dead floating cells entry was “Dead floating cells were not observed”. The “inhibition of cell growth” value in data set [6] (highest concentrations, 6 human tumor cell lines, FIG. 2) was “no 100% inhibition of cell growth”.

One may read the IC50 as the point on the concentration scale where inhibition reaches its midpoint.
